Laboratory results taken from US9315532B2, “Fatty acid carbohydrate hybrid molecules as therapeutic agents and methods thereof” (The Johns Hopkins University, priority 2005, dated 2016).

What was measured:
[1] = tested on: sialic acid biosynthesis in Jurkat cells; assay: Assay for total sialic acid production (periodate-resorcinol); type: cell-based, human; conditions: 50 and 100 mM, 48 h
Description: Jurkat cells (5.0×10^6 cells in 10 mL medium) were incubated with 1-5 at various concentrations. […] The cell lysates were analyzed by using an adapted version of the periodate-resorcinol assay (36, 59) with the periodic acid oxidation step performed on ice to allow quantification of total (i.e., free monosaccharide plus glycoconjugate-bound) sialic acid. For each assay, a standard curve was obtained using N-acetylneuraminic acid (Pfanstiehl, Waukegan, Ill.) for calibration.

Jurkat cells [2] = assay: Toxicity of sodium butyrate (5) towards cells primed with ManNAc; type: cell-based, human
Description: Jurkat cells (5.0×10^5 per mL) were incubated with PBS and ManNAc at 50 or 100 mM. After 48 h, the cells were counted, harvested, washed once in fresh medium and plated in a 24-well plate containing various concentrations of sodium butyrate (5) (0-2.0 mM; a stock solution of 200 mM in PBS was used for dilutions and control samples). Cell cultures were maintained and growth was monitored for 15 days as described above under the toxicity and growth inhibition assays.

Jurkat cells [3] = assay: Toxicity and growth inhibition assays (cell counts on days 3, 5 and 15); type: cell-based, human; conditions: Jurkat cells, 0-320 μM
Description: For cell culture studies, But4ManNAc (1) (50) was used as a mixture of anomers (α/β=10/90), But4GlcNAc (2) as pure α-anomer and But5Man (3) as pure β-anomer (It is noteworthy that the intracellular hydrolysis of butyrate esters makes the anomeric configuration less relevant in these studies and we found similar cellular effects between the α- and β-anomers in long term toxicity). Stock solutions of the sugar analogs were made in ethanol at concentrations of 10 mM and 50 mM. In the case of cells growing in suspension the solutions of 1-4 (or an ethanol control at an equivalent volume) were coated onto dishes and the ethanol was allowed to evaporate prior to plating. Unless otherwise noted, throughout this study Jurkat cells (Clone E-6, ATCC, Manassas, Va.) were cultured in RPMI 1640 medium supplemented with 300 mg/L glutamine, 5.0% fetal bovine serum (HyClone, Logan, Utah) and 1.0% of a 100× dilution of a pen/strep stock solution containing penicillin (100 units/mL) and streptomycin (100 μg/mL); HL-60 cells (ATCC, Manassas, Va.) were cultured in RPMI 1640 medium supplemented with 10% FBS and pen/strep; and AD293 (HEK) cells (Stratagene, La Jolla, Calif.) were grown in DMEM medium with 10% FBS and pen/strep. In all cases, cells were incubated in a standard 37° C. in a 5.0% CO2, water-saturated environment. Cell counting was performed with a Beckman-Coulter Z2 particle counter and hemacytometer.
Solutions of the analogs in EtOH (10 mM stock) were coated onto 24-well plates at a range of concentrations from 0-320 μM and ethanol was allowed to evaporate. Jurkat cells (1.0×10^5 cells) in 0.5 mL of medium were plated in each well (day 0). On days 3 and 5, fresh medium (1.0 mL) was added to each well. Cell cultures were mixed by gentle pipetting and 100 μL of cell suspension was taken from each well and counted. On days 7, 9, 11, 13 and 15, 1.0 mL of cell suspension was removed from each well after thorough mixing and fresh medium (1.0 mL) was added. Cells were counted on day 15 and the cell density was plotted as a percentage of control (as was done for cell counts from days 3 and 5).

Jurkat cells [4] = assay: Cell viability assay (trypan blue exclusion); type: cell-based, human; conditions: 200 μM
Description: Jurkat cells (2.0×10^5 cells/mL) were seeded with 1-4 at 200 μM in 6-well T. C. plates. Aliquots of cell suspension (20 μL) were removed on a daily basis diluted with either PBS (20 μL) or trypan blue solution (20 μL) and cell viability was determined by using the standard trypan blue exclusion method; three replicate counts were taken for each condition.

Jurkat cells [5] = assay: Flow cytometry analysis of cell cycle status (PI/RNase A); type: cell-based, human; conditions: human cancer cells
Description: The cell cycle arrest induced by butyrate analogs was studied following the standard protocol (49). Briefly, Jurkat cells (2.3×10^5 cells/mL) were incubated with various concentrations of 1 (0, 25, 50, 75, 100, 150 and 200 μM); 2 (200 μM); 3 (200 μM); and 4 (200 μM) for five days. The cells were then harvested, counted, washed twice with PBS, re-suspended in PBS (500 μL), added to a cold solution of 78% aqueous ethanol (4.5 mL) using a glass Pasteur pipette and kept at 2.0° C. for at least 24 h. The fixed cells were centrifuged twice to remove the ethanol completely, re-suspended in propidium iodide (PI)/ribonuclease A (RNase A) staining buffer (BD Pharmingen, Catalog No. 550825, San Diego, Calif.) (500 μL for 1.0×10^6 cells), incubated at 37° C. for 15 min and analyzed by flow cytometry. The cellular aggregates were excluded from single cell populations using an area-width plot (FL2—PT fluorescence) for the cell cycle status determination. At least 10,000 gated events were counted for each determination.
Jurkat cells (2.5×10^5 cells/mL) were incubated with either ethanol (0.2%) or 1 (100 μM or 200 μM). Aliquots of cell suspensions were taken on day 0 and days 2-6, washed with PBS (twice) and fixed in 75% ethanol at 2.0° C. for at least 48 h. The cells were stained with PI/RNase staining buffer and analyzed by flow cytometry as given above.

HeLa cells = assay: Morphological changes to HeLa cells; type: cell-based, human; conditions: 3 days; 1 at 250 μM, 5 at 5.0 mM
Description: (§1) The studies on morphological changes induced by sodium butyrate (5) and But4ManNAc (1) were performed following a reported procedure (45). Briefly, HeLa cells (200,000 cells per well in a 6-well plate) were plated and allowed to form monolayers. After 24 h, the supernatant was aspirated, fresh medium (4.0 mL) was added and treated with either ethanol (20 μL (0.5%), control), 5 (5.0 mM), or 1 (250 μM). For the AD 293 (HEK) cells 2.0×10^6 cells in 10 mL of medium (100 mm tissue culture dishes) were plated and treated, immediately after plating, with either ethanol (50 μL, control), 5 (5.0 mM), or 1 (250 μM). Images were acquired at various time intervals under bright field using a Nikon Eclipse TE200 inverted microscope equipped with a DXM 1200 digital camera.

AD293 (HEK) cells = assay: Morphological changes / toxicity in AD293 (HEK) cells; type: cell-based, human; conditions: 2 days; 1 at 250 μM, 5 at 5.0 mM
Description: as §1

p21WAF1/Cip1 promoter = assay: Luc-p21WAF1/Cip1 luciferase reporter gene assay in AD293 (HEK) cells; type: cell-based, human
Description: The plasmid Luc-p21^Cip1/WAF1 (a gift from Vogelstein Laboratory, JHMI, Baltimore, Md.) was amplified and purified utilizing a plasmid maxi kit (Cat. No. 12163. Qiagen, Valencia, Calif.) following the manufacturer's protocol. HEK cells (2.5×10^5) were seeded in 3.0 mL medium and grown in 6-well T. C. plates. Transfection was performed using lipofectamine 2000 (Cat. No. 11668-019, Invitrogen, Carlsbad, Calif.) following the protocol supplier's protocol. Cells were trypsinized 24 h after transfection and seeded at 250,000 cells per well with concentrations of 1-4 shown in FIG. 3a or 1, 5, and ManNAc plus 5 at the concentrations shown in FIG. 3c. After 72 h, the cells were trypsinized, counted and lysed in 300 μL of luciferase cell culture lysis buffer and diluted five-fold in the same buffer. Luminometry was performed utilizing the ‘Luciferase Assay System’ (Cat. No. 1500, 4550, Promega, Madison, Wis.) following supplier's protocol. Luciferase Assay Reagent (100 μL) was added to the cell lysate (20 μL) in luminometer tubes (Cat. No. 55.476, Sarstedt, Newton, N.C.) and the luminescence was measured immediately using a Berthold Sirius Luminometer. The final values were normalized relative to ethanol-treated controls and reported on a per cell basis.

p21WAF1 = assay: Endogenous p21WAF1 assay (anti-p21WAF1 antibody, flow cytometry) in Jurkat cells; type: cell-based, human; conditions: one week, 1 at 250 μM, 5 at 2.5 mM
Description: Endogenous expression of p21^WAF1 was detected following a reported procedure (58) with minor modifications. Jurkat cells (5.0×10^6 cells in 10 mL medium) were incubated with either ethanol or 1 (250 μM or 5 (2.5 mM). On a daily basis, aliquots of cells (˜1.0×10^6 per sample) were taken, washed with PBS (2×1.0 mL), fixed with Reagent A (Fix and Perm Kit, Caltag Laboratories, CA, Cat. No. GAS-003) for 10 min at room temperature, washed with washing buffer (PBS containing 5.0% FBS, 0.1% NaN3), re-suspended in 95% v/v methanol and kept on ice. After 30 min, cells were again washed with washing buffer and incubated with FITC-conjugated anti-p21^WAF1 antibody (Calbiochem, San Diego, Calif., Cat. No. OP64F) at 2.0 μg/mL in Reagent B (100 μL) (Fix and Perm Kit, Caltag Laboratories) for 1.0 h at room temperature in the dark. Finally, cells were re-suspended in washing buffer (500 μL) and analyzed by flow cytometry. Three replicate samples were taken for each condition and 10,000 events were counted for each sample.

Row | SMILES | level required for even partial cell inhibition and toxicity, when used separately (Jurkat cells [2]; Jurkat cells, day 15) | long term growth characteristics (day 15) (Jurkat cells [3]) | reduced cell viability in trypan blue assay (Jurkat cells [4]) | apoptosis versus cell cycle arrest (summary) (Jurkat cells [5]) | other results
1 | CC(=O)N[C@@H]1C(O)O[C@H](CO)[C@@H](O)[C@@H]1O (stereo partly drawn) [ManNAc, N-acetyl-D-mannosamine, reference compound] | 100 mM | – | – | – | increase in total sialic acid [1]: 20-30 fold
2 | CCCC(=O)OC[C@H]1O[C@H](OC(=O)CCC)[C@H](NC(C)=O)[C@@H](OC(=O)CCC)[C@@H]1OC(=O)CCC [compound 2, 2-Acetamido-1,3,4,6-tetra-O-butanoyl-2-deoxy-α-D-glucopyranose] | – | resumed cell growth over the long term | not | only provided transient cell cycle arrest | melting point: 152 to 154 °C
3 | CCCC(=O)OC[C@H]1OC(OC(=O)CCC)[C@@H](OC(=O)CCC)[C@@H](OC(=O)CCC)[C@@H]1OC(=O)CCC (stereo partly drawn) [compound 3, 1,2,3,4,6-Penta-O-butanoyl-α,β-D-mannopyranose] | – | resumed cell growth over the long term | not | only provided transient cell cycle arrest | –
4 | CCCC(=O)OCC(COC(=O)CCC)OC(=O)CCC [compound 4, tributyrin, reference compound] | – | resumed cell growth over the long term | – | only provided transient cell cycle arrest | cell proliferation at early time points (days 3 & 5) (Jurkat cells [3]; days 3 and 5): minimal inhibition
5 | CCCC(=O)[O-].[Na+] [compound 5, Sodium n-butyrate, reference compound] | 2.0 mm | – | – | – | morphological changes / differentiation of HeLa cells (HeLa cells): growth of extended processes; apoptosis / toxicity in AD293 cells (AD293 (HEK) cells): toxicity; concentration level required for p21WAF1/Cip1 activation (p21WAF1/Cip1 promoter): millimolar concentrations required; endogenous p21WAF1 levels (p21WAF1): increased p21^WAF1 levels; growth of ManNAc-treated cells compared to untreated controls (Jurkat cells [2]; Jurkat cells pre-incubated with ManNAc 50 or 100 mM, 5 at 0-2.0 mM, five days): inhibited; concentration at which ManNAc-treated cells showed susceptibility (Jurkat cells [2]; Jurkat cells pre-incubated with ManNAc, day 15): ≥ 2.0 mM; growth of control cells (without ManNAc) (Jurkat cells [2]; Jurkat cells, 5 at 0-2.0 mM, day 15): almost completely recovered from early inhibition
